Experimental findings from ChEMBL document CHEMBL1147797, “Construction of human ghrelin receptor (hGHS-R1a) model using a fragmental prediction approach and validation through docking analysis” (J Med Chem, 2006) are described below.

For this assay, the target named is Growth hormone secretagogue receptor type 1 (Homo sapiens, UniProt Q92847). The assay is described as follows: Activity at human GHS-R1a receptor in rat pituitary cells assessed as GH release. Format: cell-based, Pituitary gland cell.
Growth hormone secretagogue receptor type 1, sequence (Q92847 whole entry): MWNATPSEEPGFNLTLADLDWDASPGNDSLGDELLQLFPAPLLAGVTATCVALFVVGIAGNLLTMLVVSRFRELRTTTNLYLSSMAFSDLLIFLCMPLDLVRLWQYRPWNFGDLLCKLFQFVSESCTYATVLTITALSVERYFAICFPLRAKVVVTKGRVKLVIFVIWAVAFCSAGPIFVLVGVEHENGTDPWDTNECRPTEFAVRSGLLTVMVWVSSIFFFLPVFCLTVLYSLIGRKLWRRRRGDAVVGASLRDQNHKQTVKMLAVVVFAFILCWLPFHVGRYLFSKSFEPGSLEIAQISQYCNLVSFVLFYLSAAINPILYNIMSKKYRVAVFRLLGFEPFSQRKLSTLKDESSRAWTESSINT

The term EC50 denotes the midpoint of the concentration-response curve. Turning to `CC(C)(N)C(=O)N[C@H](CCCc1ccccc1)C(=O)N1CCC2(CC1)CSc1ccccc12`, the concentration giving a half-maximal response (EC50) was determined as 4.8 nM.
As for `CC(C)(N)C(=O)N[C@H](Cc1c[nH]c2ccccc12)C(=O)N1CCC2(CC1)CSc1ccccc12`, the half-maximal effective concentration (EC50) was determined as 5.6 nM.
`CC(C)(N)C(=O)N[C@H](Cc1c[nH]c2ccccc12)C(=O)N1CCC2(CC1)CS(=O)(=O)c1ccccc12`: the concentration giving a half-maximal response (EC50) was found to be 2.1 nM.
As for `CC(C)(N)C(=O)N[C@H](COCc1ccccc1)C(=O)N1CCC2(CC1)CSc1ccccc12`, the EC50 was found to be 10 nM.
Turning to `CC(C)(N)C(=O)N[C@H](COCc1ccccc1)C(=O)N1CCC2(CC1)C[S+]([O-])c1ccccc12` (stereo partly drawn), the 50% effective concentration (EC50) came to 8.5 nM.
For the compound `CC(C)(N)C(=O)N[C@H](CCCc1ccccc1)C(=O)N1CCC2(CC1)C[S+]([O-])c1ccccc12` (stereo partly drawn), the concentration giving a half-maximal response (EC50) was 2.5 nM.
`CC(C)(N)C(=O)N[C@H](CCCc1ccccc1)C(=O)N1CCC2(CC1)CS(=O)(=O)c1ccccc12`: the EC50 was 1.1 nM.
`CC(C)(N)C(=O)N[C@H](CCCc1ccccc1)C(=O)N1CCC2(CC1)COc1ccccc12`: the concentration for a half-maximal effect (EC50) amounted to 2.7 nM.
Take `CC(C)(N)C(=O)N[C@H](COCc1ccccc1)C(=O)N1CCC2(CC1)COc1ccccc12`: the EC50 came to 8.5 nM.
Regarding `CC(C)(N)C(=O)N[C@H](CCc1ccccc1)C(=O)N1CCC2(CC1)CS(=O)(=O)c1ccccc12`, the 50% effective concentration (EC50) was 6 nM.
As to `CC(C)(N)C(=O)N[C@H](CCc1ccccc1)C(=O)N1CCC2(CC1)CSc1ccccc12`, the EC50 was 57 nM.
Take `CC(C)(N)C(=O)N[C@H](COCc1ccccc1)C(=O)N1CCC2(CC1)CS(=O)(=O)c1ccccc12`: the EC50 was determined as 5 nM.
On to `CC(C)(N)C(=O)N[C@H](Cc1c[nH]c2ccccc12)C(=O)N1CCC2(CC1)C[C@@H](O)c1ccccc12`, for which the concentration giving a half-maximal response (EC50) is 0.6 nM.
For `CNC(C)(C)C/C=C/C(=O)N(C)[C@H](Cc1ccc2ccccc2c1)C(=O)N(C)Cc1ccccc1`, the EC50 came out at 3 nM.
With `CCN1N=C2CCN(C(=O)[C@@H](COCc3ccccc3)NC(=O)C(C)(C)N)C[C@]2(Cc2ccccc2)C1=O`, the EC50 was found to be 4 nM.
`CN1N=C2CCN(C(=O)[C@@H](COCc3ccccc3)NC(=O)C(C)(C)N)C[C@]2(Cc2ccccc2)C1=O`: the concentration for a half-maximal effect (EC50) amounted to 3 nM.
For the compound `CCNC(=O)[C@@]1(Cc2ccccc2)CCCN(C(=O)[C@@H](Cc2c[nH]c3ccccc23)NC(=O)C(C)(C)N)C1`, the EC50 is 0.8 nM.
Regarding `CC(C)(N)C(=O)N[C@H](CCCc1ccccc1)C(=O)N1CCC2(CCc3ccccc32)CC1`, the EC50 worked out at 10 nM.
On to `CC(C)(N)C(=O)N[C@@H]1CCc2ccccc2N(Cc2ccc(-c3ccccc3CNC(=O)NCCO)cc2)C1=O`, for which the concentration giving a half-maximal response (EC50) was 2 nM.
For `CCNC(=O)NCc1ccccc1-c1ccc(CN2C(=O)[C@H](NC(=O)C(C)(C)N)CCc3ccccc32)cc1`, the EC50 is 6 nM.
In the case of `CNC(C)(C)C/C=C/C(=O)N(C)[C@H](Cc1ccc2ccccc2c1)C(=O)N(C)CCc1ccccc1OCCO`, the 50% effective concentration (EC50) was determined as 5 nM.
Regarding `CNC(C)(C)C/C=C/C(=O)N(C)[C@H](Cc1ccc2ccccc2c1)C(=O)N(C)CCc1cccs1`, the EC50 is 0.8 nM.
On to `CN(CCc1cccs1)C(=O)[C@@H](Cc1ccc(-c2ccccc2)cc1)N(C)C(=O)/C=C/CC(C)(C)N`, for which the EC50 was 5 nM.
On to `CN(CCc1ccccc1NS(C)(=O)=O)C(=O)[C@@H](Cc1ccc2ccccc2c1)N(C)C(=O)/C=C/CC(C)(C)N`, for which the EC50 turned out to be 18 nM.
For the compound `CC(C)(N)C(=O)N[C@H](COCc1ccccc1)C(=O)N1CCC2=NNC(=O)[C@@]2(Cc2ccccc2)C1`, the 50% effective concentration (EC50) worked out at 3 nM.
As to `CN(CCc1cccs1)C(=O)[C@@H](Cc1ccc2ccccc2c1)N(C)C(=O)/C=C/CC(C)(C)N`, the EC50 came out at 7.5 nM.
Then `CC(C)(N)C(=O)N[C@H](COCc1ccccc1)C(=O)N1CCC2(CCc3ccccc32)CC1`, with 17 nM; and `CCOC(=O)[C@@]1(Cc2ccccc2)CCCN(C(=O)[C@@H](Cc2c[nH]c3ccccc23)NC(=O)C(C)(C)N)C1`, with 1.6 nM.
Take `CN(CCc1ccccc1OCCO)C(=O)[C@@H](Cc1ccc2ccccc2c1)N(C)C(=O)/C=C/CC(C)(C)N`: the half-maximal effective concentration (EC50) amounted to 5 nM.
In the case of `CNC(=O)NCc1ccccc1-c1ccc(CN2C(=O)[C@H](NC(=O)C(C)(C)N)CCc3ccccc32)cc1`, the EC50 was found to be 1 nM.
Regarding `CC(C)(N)C(=O)N[C@H](CCc1ccccc1)C(=O)N1CCC2(CCc3ccccc32)CC1`, the EC50 is 22 nM.
As for `CC(C)(N)C(=O)N[C@H](Cc1c[nH]c2ccccc12)C(=O)N1CCC2(CCc3ccccc32)CC1` [L-162752], the figure is 14 nM; as for `CNC(=O)[C@@H](Cc1ccccc1)N(C)C(=O)[C@@H](Cc1ccc2ccccc2c1)N(C)C(=O)/C=C/CC(C)(C)N` [TABIMORELIN], 3 nM.
